For data set [1], the target named is T1, pregnane X receptor (PXR) (Homo sapiens, UniProt O75469).
T1 sequence (O75469 1-434): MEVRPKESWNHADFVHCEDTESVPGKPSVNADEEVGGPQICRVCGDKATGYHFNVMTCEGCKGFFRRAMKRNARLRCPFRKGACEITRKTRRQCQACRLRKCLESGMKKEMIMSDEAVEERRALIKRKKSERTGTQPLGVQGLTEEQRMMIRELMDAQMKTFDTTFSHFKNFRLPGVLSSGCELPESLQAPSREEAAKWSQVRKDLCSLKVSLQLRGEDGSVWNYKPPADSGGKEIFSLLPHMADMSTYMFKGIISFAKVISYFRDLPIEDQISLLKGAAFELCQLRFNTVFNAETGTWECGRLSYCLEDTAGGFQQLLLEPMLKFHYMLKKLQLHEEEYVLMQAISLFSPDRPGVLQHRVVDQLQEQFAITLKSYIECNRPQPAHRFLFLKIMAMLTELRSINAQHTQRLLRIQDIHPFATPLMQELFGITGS
Type of data set: cell-based. To be noted: for Fold induction in PXR activity: HepG2, 24 h, mean ± SD, NA = No activation.

For data set [2], the target named is CYP3A4 (Homo sapiens, UniProt P08684). The experiment in a line: Cytochrome P450. To be noted: for CYP 3A4 Inhibition - IC50: 15 min incubation, 37 °C, mean ± SD of three experiments.

Read-outs that look alike come from different tables or passages of the source.

Sequence of CYP3A4 (P08684 whole entry): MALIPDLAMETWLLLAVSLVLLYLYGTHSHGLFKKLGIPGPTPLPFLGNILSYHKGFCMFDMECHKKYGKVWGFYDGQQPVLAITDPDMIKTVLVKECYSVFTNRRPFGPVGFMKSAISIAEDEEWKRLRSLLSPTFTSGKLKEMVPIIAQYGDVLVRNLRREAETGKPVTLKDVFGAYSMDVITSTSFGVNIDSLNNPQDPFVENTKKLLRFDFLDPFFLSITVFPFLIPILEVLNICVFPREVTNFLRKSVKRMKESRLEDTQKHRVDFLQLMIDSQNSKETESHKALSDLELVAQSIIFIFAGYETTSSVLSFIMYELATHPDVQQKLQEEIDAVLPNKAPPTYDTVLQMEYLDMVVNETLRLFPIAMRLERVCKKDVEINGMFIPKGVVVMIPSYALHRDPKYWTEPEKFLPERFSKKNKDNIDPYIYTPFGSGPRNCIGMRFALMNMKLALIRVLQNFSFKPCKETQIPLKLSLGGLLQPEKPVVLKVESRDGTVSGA

Consider `C=C(CC[C@@H](C)[C@H]1CC[C@@]2(C)[C@@H]3CC[C@H]4[C@H](C)[C@@H](O)CC[C@@]45C[C@@]35CC[C@]12C)C(C)C` [Cycloeucalenol, cycloeucalenol], for which, in data set [1] (human), the fold induction at 24 h, 12.5 μg/mL worked out at 1.42 ± 0.06; the fold induction at 24 h, 25 μg/mL is 1.91 ± 0.23; the fold induction at 24 h, 50 μg/mL came out at 2.42 ± 0.3.
In turn, `COC(=O)C1=CCC[C@H]2[C@]3(C)C[C@@H](c4ccoc4)OC(=O)[C@@H]3C[C@@H](O[C@@H]3O[C@H](CO)[C@@H](O)[C@H](O)[C@H]3O)[C@@]12C` [Borapetoside C, borapetoside C] gave an IC50 in data set [2] of 69.9 µM.
As for `CC(=O)O[C@@H]1[C@@H]2[C@H](CC[C@@]3(O)C(=O)O[C@H](c4ccoc4)C[C@@]23C)[C@H](O[C@@H]2O[C@H](CO)[C@@H](O)[C@H](O)[C@H]2O)C[C@@H]1O` [Tinosineside A, tinosineside A], the “Fold induction in PXR activity” value is 1.42 ± 0.06 fold in data set [1] (compounds at 12.5 μg/mL), 1.50 ± 0.00 fold in data set [1] (compounds at 25 μg/mL) and 1.53 ± 0.11 fold in data set [1] (compounds at 50 μg/mL). Also, the “CYP 3A4 Inhibition - IC50” value in data set [2] was found to be 45.00 ± 5.72 µg/mL.
Take `CO[C@H]1/C=C/O[C@@]2(C)Oc3c(C)c(O)c4c(O)c(c(/C=N/N5CCN(C)CC5)c(O)c4c3C2=O)NC(=O)/C(C)=C\C=C\[C@H](C)[C@H](O)[C@@H](C)[C@@H](O)[C@@H](C)[C@H](OC(C)=O)[C@@H]1C` [Rifampicin, reference compound]: in data set [1] (human), the fold induction at 24 h, 5 µM amounted to 3.24 ± 0.15 and the fold induction at 24 h, 10 µM came to 3.25 ± 0.08.
For the compound `COc1cc(/C=C/C(=O)NCCc2ccc(O)cc2)ccc1O` [N-trans-feruloyl tyramine], in data set [1] (human), the fold induction at 24 h, 12.5 μg/mL turned out to be 1.59 ± 0.07; the fold induction at 24 h, 25 μg/mL turned out to be 2.16 ± 0.27; the fold induction at 24 h, 50 μg/mL came out at 2.29 ± 0.41. This compound showed an IC50 in data set [2] of 8.62 µM.
In the case of baenzigeride A, the “Fold induction in PXR activity” value in data set [1] (compounds at 12.5 μg/mL) is reported as 1.18 ± 0.09 fold; in data set [1] (compounds at 25 μg/mL), 1.54 ± 0.16 fold; in data set [1] (compounds at 50 μg/mL) it was 1.96 ± 0.16 fold.
With `COC(=O)C1=C[C@H](O)C[C@H]2[C@]3(C)C[C@@H](c4ccoc4)OC(=O)[C@@H]3C[C@@H](O[C@@H]3O[C@H](CO)[C@@H](O)[C@H](O)[C@H]3O)[C@@]12C` [(2R,5R,6R,8R,9S, 10S,12S)-15,16-epoxy-2-hydroxy-6-O-(β-D-glucopyranosyl)-cleroda-3, 13(16),14-trien-17,12-olid-18-oicacidmethyl ester], the figures for the “Fold induction in PXR activity” value in data set [1] (compounds at 12.5 μg/mL), in data set [1] (compounds at 25 μg/mL) and in data set [1] (compounds at 50 μg/mL) were 0.93 ± 0.04 fold, 1.01 ± 0.13 fold and 1.39 ± 0.11 fold, respectively. Further, the “CYP 3A4 Inhibition - IC50” value in data set [2] was determined as 29.00 ± 0.82 µg/mL.
In the case of `COc1cc(/C=C/CO)cc(OC)c1O[C@@H]1O[C@H](CO)[C@@H](O)[C@H](O[C@@H]2OC[C@](O)(CO)[C@H]2O)[C@H]1O` [Tinosinen, tinosinen], the results for the “Fold induction in PXR activity” value in data set [1] (compounds at 12.5 μg/mL), in data set [1] (compounds at 25 μg/mL) and in data set [1] (compounds at 50 μg/mL) were 1.48 ± 0.06 fold, 1.67 ± 0.02 fold and 1.42 ± 0.06 fold, respectively. Further, in data set [2], the “CYP 3A4 Inhibition - IC50” value was >100 µg/mL.
In the case of `COC(=O)C1=CCCC2C3(C)CC(c4ccoc4)OC(=O)C3=CC(OC3OC(CO)C(O)C(O)C3O)C12C` (stereo not shown) [Borapetoside F, borapetoside F], the “CYP 3A4 Inhibition - IC50” value in data set [2] stood at 13.00 ± 0.82 µg/mL.
`COc1cc2c(cc1OC)-c1cc3ccc(OC)c(OC)c3c[n+]1CC2` [Palmatine, palmatine]: the “Fold induction in PXR activity” value is listed as 1.08 ± 0.00 fold in data set [1] (compounds at 12.5 μg/mL), 1.30 ± 0.00 fold in data set [1] (compounds at 25 μg/mL) and 1.43 ± 0.00 fold in data set [1] (compounds at 50 μg/mL). Besides, in data set [2], the “CYP 3A4 Inhibition - IC50” value is 34.00 ± 0.00 µg/mL.
As for cordifoliside C, the “Fold induction in PXR activity” value in data set [1] (compounds at 12.5 μg/mL) amounted to 1.22 ± 0.06 fold; in data set [1] (compounds at 25 μg/mL) it was 1.47 ± 0.03 fold; in data set [1] (compounds at 50 μg/mL), 1.95 ± 0.04 fold.
In the case of tinosposinoside, the “Fold induction in PXR activity” value in data set [1] (compounds at 12.5 μg/mL) was found to be 1.30 ± 0.08 fold; in data set [1] (compounds at 25 μg/mL) it was 1.55 ± 0.08 fold; in data set [1] (compounds at 50 μg/mL) it was 1.52 ± 0.15 fold.
In the case of `C[C@@]12C[C@@H](c3ccoc3)OC(=O)[C@@H]1CC[C@]1(C)[C@H]2[C@@H]2C=C[C@@]1(O)C(=O)O2` [Columbin, columbin], the “Fold induction in PXR activity” value is 2.89 ± 0.62 fold in data set [1] (compounds at 25 μg/mL) and 3.58 ± 0.61 fold in data set [1] (compounds at 50 μg/mL). Also, in data set [1] (concentration not given), the “PXR activation (fold)” value is 3 fold.
In data set [2], `COC(=O)C1=C[C@H](O)C[C@H]2[C@]3(C)C[C@@H](c4ccoc4)OC(=O)[C@H]3C[C@H](O[C@@H]3O[C@H](CO)[C@@H](O)[C@H](O)[C@H]3O)[C@@]12C` [Borapetoside B, borapetoside B] gave an IC50 of 181 µM.

In general, fold induction refers to the signal under treatment as a multiple of the control signal. A word on the IC50: it is the point on the concentration scale where inhibition reaches its midpoint.

(Values after article PMC11094663 (Journal of ethnopharmacology, 2022).)
